According to the supplement of paper PMC10307832:

Columns and labels:
Test in all cases: relative viability (nuclei count vs DMSO), 5 days (fraction); higher = more cells survive
Adavosertib = compound: C=CCn1c(=O)c2cnc(Nc3ccc(N4CCN(C)CC4)cc3)nc2n1-c1cccc(C(C)(C)O)n1 [Adavosertib]
Summary of the method: (§1)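 Viability is treated-well nuclei as a fraction of vehicle-well nuclei, reported as the median across plates. Before counting, lung cancer cell lines were kept overnight at 37 °C in 1536-well plates, pinned with five √10-spaced library-drug doses on vehicle-anchored plates, and left 5 days without medium change, then fixed, permeabilised and Hoechst-stained in one step, imaged at 4× and counted by MetaXpress. A plate passed only if control CV was below 25% and at least one doubling occurred.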

Nelarabine = compound: COc1nc(N)nc2c1ncn2[C@@H]1O[C@H](CO)[C@@H](O)[C@@H]1O [Nelarabine]
Summary of the method: as §1

Adavosertib + Luminespib = compound: C=CCn1c(=O)c2cnc(Nc3ccc(N4CCN(C)CC4)cc3)nc2n1-c1cccc(C(C)(C)O)n1 [Adavosertib] + CCNC(=O)c1noc(-c2cc(C(C)C)c(O)cc2O)c1-c1ccc(CN2CCOCC2)cc1 [Luminespib] (partner 0.01 µM)
Summary of the method: (§2)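 Five library-drug doses in √10 steps were combined with a fixed anchor-drug dose, or a single drug was given alone, by pin tool to lung cancer cell lines in 1536-well plates the day after seeding. Nuclei were stained and counted after 5 days. Relative viability is the nuclei count in treated wells over that in vehicle wells, taken as the median of duplicate plates.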

Adavosertib + Foretinib = compound: C=CCn1c(=O)c2cnc(Nc3ccc(N4CCN(C)CC4)cc3)nc2n1-c1cccc(C(C)(C)O)n1 [Adavosertib] + COc1cc2c(Oc3ccc(NC(=O)C4(C(=O)Nc5ccc(F)cc5)CC4)cc3F)ccnc2cc1OCCCN1CCOCC1 [Foretinib] (partner 0.25 µM)
Summary of the method: as §2

Adavosertib + OSI-027 = compound: C=CCn1c(=O)c2cnc(Nc3ccc(N4CCN(C)CC4)cc3)nc2n1-c1cccc(C(C)(C)O)n1 [Adavosertib] + COc1cccc2cc(-c3nc([C@H]4CC[C@H](C(=O)O)CC4)n4ncnc(N)c34)[nH]c12 [OSI-027] (partner 0.5 µM)
Summary of the method: as §2

Adavosertib + Tozasertib = compound: C=CCn1c(=O)c2cnc(Nc3ccc(N4CCN(C)CC4)cc3)nc2n1-c1cccc(C(C)(C)O)n1 [Adavosertib] + Cc1cc(Nc2cc(N3CCN(C)CC3)nc(Sc3ccc(NC(=O)C4CC4)cc3)n2)n[nH]1 [Tozasertib] (partner 0.1 µM)
Summary of the method: as §2

Adavosertib + Dasatinib = compound: C=CCn1c(=O)c2cnc(Nc3ccc(N4CCN(C)CC4)cc3)nc2n1-c1cccc(C(C)(C)O)n1 [Adavosertib] + Cc1nc(Nc2ncc(C(=O)Nc3c(C)cccc3Cl)s2)cc(N2CCN(CCO)CC2)n1 [Dasatinib] (partner 0.075 µM)
Summary of the method: as §2

Adavosertib + Phenformin = compound: C=CCn1c(=O)c2cnc(Nc3ccc(N4CCN(C)CC4)cc3)nc2n1-c1cccc(C(C)(C)O)n1 [Adavosertib] + N=C(N)NC(=N)NCCc1ccccc1 [Phenformin] (partner 250 µM)
Summary of the method: as §2

Nelarabine + Luminespib = compound: COc1nc(N)nc2c1ncn2[C@@H]1O[C@H](CO)[C@@H](O)[C@@H]1O [Nelarabine] + CCNC(=O)c1noc(-c2cc(C(C)C)c(O)cc2O)c1-c1ccc(CN2CCOCC2)cc1 [Luminespib] (partner 0.01 µM)
Summary of the method: as §2

Nelarabine + Foretinib = compound: COc1nc(N)nc2c1ncn2[C@@H]1O[C@H](CO)[C@@H](O)[C@@H]1O [Nelarabine] + COc1cc2c(Oc3ccc(NC(=O)C4(C(=O)Nc5ccc(F)cc5)CC4)cc3F)ccnc2cc1OCCCN1CCOCC1 [Foretinib] (partner 0.25 µM)
Summary of the method: as §2

Nelarabine + OSI-027 = compound: COc1nc(N)nc2c1ncn2[C@@H]1O[C@H](CO)[C@@H](O)[C@@H]1O [Nelarabine] + COc1cccc2cc(-c3nc([C@H]4CC[C@H](C(=O)O)CC4)n4ncnc(N)c34)[nH]c12 [OSI-027] (partner 0.5 µM)
Summary of the method: as §2

Nelarabine + Tozasertib = compound: COc1nc(N)nc2c1ncn2[C@@H]1O[C@H](CO)[C@@H](O)[C@@H]1O [Nelarabine] + Cc1cc(Nc2cc(N3CCN(C)CC3)nc(Sc3ccc(NC(=O)C4CC4)cc3)n2)n[nH]1 [Tozasertib] (partner 0.1 µM)
Summary of the method: as §2

Nelarabine + Dasatinib = compound: COc1nc(N)nc2c1ncn2[C@@H]1O[C@H](CO)[C@@H](O)[C@@H]1O [Nelarabine] + Cc1nc(Nc2ncc(C(=O)Nc3c(C)cccc3Cl)s2)cc(N2CCN(CCO)CC2)n1 [Dasatinib] (partner 0.075 µM)
Summary of the method: as §2

Nelarabine + Phenformin = compound: COc1nc(N)nc2c1ncn2[C@@H]1O[C@H](CO)[C@@H](O)[C@@H]1O [Nelarabine] + N=C(N)NC(=N)NCCc1ccccc1 [Phenformin] (partner 250 µM)
Summary of the method: as §2

NCI-H1623
relative viability (Adavosertib; 0.01 µM): 0.895 | relative viability (Adavosertib; 0.03162 µM): 0.915 | relative viability (Adavosertib; 0.1 µM): 0.949 | relative viability (Adavosertib; 0.3162 µM): 1.01 | relative viability (Nelarabine; 0.01 µM): 0.869 | relative viability (Nelarabine; 0.03162 µM): 1.12 | relative viability (Nelarabine; 0.1 µM): 0.965 | relative viability (Nelarabine; 0.3162 µM): 0.979 | relative viability (Nelarabine; 1 µM): 0.931 | relative viability (Adavosertib + Luminespib; first compound 0.01 µM): 0.354 | relative viability (Adavosertib + Luminespib; first compound 0.03162 µM): 0.492 | relative viability (Adavosertib + Luminespib; first compound 0.1 µM): 0.453 | relative viability (Adavosertib + Luminespib; first compound 0.3162 µM): 0.468 | relative viability (Adavosertib + Foretinib; first compound 0.01 µM): 0.863 | relative viability (Adavosertib + Foretinib; first compound 0.03162 µM): 0.863 | relative viability (Adavosertib + Foretinib; first compound 0.1 µM): 0.854 | relative viability (Adavosertib + Foretinib; first compound 0.3162 µM): 0.933 | relative viability (Adavosertib + OSI-027; first compound 0.01 µM): 0.427 | relative viability (Adavosertib + OSI-027; first compound 0.03162 µM): 0.446 | relative viability (Adavosertib + OSI-027; first compound 0.1 µM): 0.389 | relative viability (Adavosertib + OSI-027; first compound 0.3162 µM): 0.431 | relative viability (Adavosertib + Tozasertib; first compound 0.01 µM): 0.4 | relative viability (Adavosertib + Tozasertib; first compound 0.03162 µM): 0.447 | relative viability (Adavosertib + Tozasertib; first compound 0.1 µM): 0.351 | relative viability (Adavosertib + Tozasertib; first compound 0.3162 µM): 0.447 | relative viability (Adavosertib + Dasatinib; first compound 0.01 µM): 0.451 | relative viability (Adavosertib + Dasatinib; first compound 0.03162 µM): 0.553 | relative viability (Adavosertib + Dasatinib; first compound 0.1 µM): 0.507 | relative viability (Adavosertib + Dasatinib; first compound 0.3162 µM): 0.575 | relative viability (Adavosertib + Phenformin; first compound 0.01 µM): 0.553 | relative viability (Adavosertib + Phenformin; first compound 0.03162 µM): 0.629 | relative viability (Adavosertib + Phenformin; first compound 0.1 µM): 0.563 | relative viability (Adavosertib + Phenformin; first compound 0.3162 µM): 0.652 | relative viability (Nelarabine + Luminespib; first compound 0.01 µM): 0.467 | relative viability (Nelarabine + Luminespib; first compound 0.03162 µM): 0.574 | relative viability (Nelarabine + Luminespib; first compound 0.1 µM): 0.588 | relative viability (Nelarabine + Luminespib; first compound 0.3162 µM): 0.483 | relative viability (Nelarabine + Luminespib; first compound 1 µM): 0.621 | relative viability (Nelarabine + Foretinib; first compound 0.01 µM): 0.971 | relative viability (Nelarabine + Foretinib; first compound 0.03162 µM): 0.818 | relative viability (Nelarabine + Foretinib; first compound 0.1 µM): 0.879 | relative viability (Nelarabine + Foretinib; first compound 0.3162 µM): 0.757 | relative viability (Nelarabine + Foretinib; first compound 1 µM): 0.834 | relative viability (Nelarabine + OSI-027; first compound 0.01 µM): 0.436 | relative viability (Nelarabine + OSI-027; first compound 0.03162 µM): 0.374 | relative viability (Nelarabine + OSI-027; first compound 0.1 µM): 0.392 | relative viability (Nelarabine + OSI-027; first compound 0.3162 µM): 0.379 | relative viability (Nelarabine + OSI-027; first compound 1 µM): 0.391 | relative viability (Nelarabine + Tozasertib; first compound 0.01 µM): 0.46 | relative viability (Nelarabine + Tozasertib; first compound 0.03162 µM): 0.341 | relative viability (Nelarabine + Tozasertib; first compound 0.1 µM): 0.601 | relative viability (Nelarabine + Tozasertib; first compound 0.3162 µM): 0.45 | relative viability (Nelarabine + Tozasertib; first compound 1 µM): 0.406 | relative viability (Nelarabine + Dasatinib; first compound 0.01 µM): 0.525 | relative viability (Nelarabine + Dasatinib; first compound 0.03162 µM): 0.563 | relative viability (Nelarabine + Dasatinib; first compound 0.1 µM): 0.51 | relative viability (Nelarabine + Dasatinib; first compound 0.3162 µM): 0.559 | relative viability (Nelarabine + Dasatinib; first compound 1 µM): 0.517 | relative viability (Nelarabine + Phenformin; first compound 0.01 µM): 0.44 | relative viability (Nelarabine + Phenformin; first compound 0.03162 µM): 0.508 | relative viability (Nelarabine + Phenformin; first compound 0.1 µM): 0.584 | relative viability (Nelarabine + Phenformin; first compound 0.3162 µM): 0.544 | relative viability (Nelarabine + Phenformin; first compound 1 µM): 0.545
